We go through three substances from patent publication US20230129258A1, “HETEROTANDEM BICYCLIC PEPTIDE COMPLEXES” (BicycleTx Limited, priority 2019, published 2023).

As usually defined, the EC50 is the midpoint of the concentration-response curve.

A short description of data set [1]: Pharmacokinetics in SD rats. It counts as in vivo. Conditions: rat, in vivo; for half-life: iv, read-out: T1/2 (converted); for clearance: read-out: Clp; for Vd: read-out: Vdss. The procedure:
(§1) Male SD Rats were dosed with each heterotandem Bicycle peptide complex formulated in 25 mM Histidine HCl, 10% sucrose pH 7 by IV bolus or IV infusion (15 minutes). Serial bleeding (about 80 μL blood/time point) was performed via submandibular or saphenous vein at each time point. All blood samples were immediately transferred into prechilled microcentrifuge tubes containing 2 μL K2-EDTA (0.5M) as anti-coagulant and placed on wet ice. Blood samples were immediately processed for plasma by centrifugation at approximately 4° C., 3000 g. The precipitant including internal standard was immediately added into the plasma, mixed well and centrifuged at 12,000 rpm, 4° C. for 10 minutes. The supernatant was transferred into pre-labeled polypropylene microcentrifuge tubes, and then quick-frozen over dry ice. The samples were stored at […] or below as needed until analysis. 7.5 μL of the supernatant samples were directly injected for LC-MS/MS analysis using an Orbitrap Q Exactive in positive ion mode to determine the concentrations of analyte. Plasma concentration versus time data were analyzed by non-compartmental approaches using the Phoenix WinNonlin 6.3 software program. C0, CI, Vdss, T½, AUC(0-last), AUC(0-inf), MRT(0-last), MRT(0-inf) and graphs of plasma concentration versus time profile were reported.

For data set [2], the system named is MC38 tumors. The experiment in a line: Anti-tumor activity of EphA2/CD137 complexes in syngeneic MC38 tumor model. It counts as in vivo, C57BL/6J-hCD137 mice. Conditions: 15 mg/kg IV Q3D, 7 doses; day 28. The procedure:
6-8 weeks old C57BL/6J-hCD137 female mice were inoculated in the flank with 1×10^6 syngeneic MC38 cells. When tumors reached 76 mm^3 size on average, mice were randomized to receive vehicle or BCY12491 (intraperitoneal administration). BCY12491 was administered (n=6 mice/treatment cohort) at either 5 mg/kg or 15 mg/kg either daily (QD) or every three days (Q3D). QD dosed mice received 22 doses of BCY12491 and Q3D dosed mice received 8 doses of BCY12491. Tumor growth was monitored by caliper measurements until day 73 after treatment initiation. The results of this experiment may be seen in FIG. 9 where it can be seen that the effect of BCY12491 on tumor growth becomes apparent in the first two weeks of the dosing period reducing the tumor growth and causing reduction of volumes of many of the treated tumors. By day 41, 15 out of 24 BCY12491 treated animals had completely responded to the treatment and had no palpable tumors left.
6-8 week old female C57BL/6J-hCD137 mice [B-hTNFRSF9(CD137) mice; Biocytogen] were implanted subcutaneously with 1×10^6 MC38 cells. Mice were randomized into treatment groups (n=6/cohort) when average tumor volumes reached around 76 mm^3 and were treated with daily doses of vehicle (25 mM histidine, 10% sucrose, pH7). BCY12491 treatment was conducted at two different dose levels (5 and 15 mg/kg) and two different dosing schedules (QD: daily; Q3D: every three days). Animals received either 22 QD doses or 8 Q3D doses intraperitoneally (ip). Tumor growth was monitored until tumor reached volumes over 2000 mm^3 or until 73 days after treatment initiation. After Day 73, 5 complete responder animals were re-challenged with MC38 tumor cell implantation alongside with 5 naïve C57BL/6J-hCD137 mice. Tumor growth was monitored for 20 days.
6-8 week old female C57BL/6J-hCD137 mice [B-hTNFRSF9(CD137) mice; Biocytogen] were implanted subcutaneously with 1×10^6 MC38 cells. Mice were randomized into treatment groups (n=6/cohort) when average tumor volumes reached around 92 mm^3 and were treated intravenously with Q3D doses of vehicle (25 mM histidine, 10% sucrose, pH7), 15 mg/kg of BCY12730, BCY12723 or BCY12491 (7 Q3D doses). Tumor growth was monitored for 28 days or until tumors exceeded 2000 mm^3.
6-8 week old female C57BL/6J-hCD137 mice [B-hTNFRSF9(CD137) mice; Biocytogen] were implanted subcutaneously with 1×10^6 MC38 cells. Mice were randomized into treatment groups (n=6/cohort) when average tumor volumes reached around 76 mm^3 and were treated intravenously with twice weekly (BIW) doses of vehicle (25 mM histidine, 10% sucrose, pH7), 5 mg/kg of BCY13048, BCY13050, or BCY12491 (6 BIW doses). Tumor growth was monitored for 28 days or until tumors exceeded 2000 mm^3.

In data set [3] the test system is human PBMCs. Nature of the data set: Human PBMC co-culture cytokine secretion assay with EphA2-expressing tumor cells (MC38, HT-1080, HT29). It counts as cell-based. The procedure: […] MC38 were cultured in Dulbecco's Modified Eagle Medium supplemented with 10% heat inactivated Fetal Bovine Serum (FBS), 1× Penicillin/Streptomycin, 10 mM HEPES, and 2 mM L-Glutamine (referred to as R10 medium). Frozen PBMCs from healthy human donors were thawed and washed once in room temperature PBS with benzonase, and then resuspended in RPMI supplemented with 10% heat inactivated Fetal Bovine Serum (FBS), 1× Penicillin/Streptomycin, 10 mM HEPES, and 2 mM L-Glutamine (herein referred to as R10 medium). 100 μl of PBMCs (1,000,000 PBMCs/ml) and 100 μl of tumor cells (100,000 tumor cells/ml) (Effector:Target cell ratio (E:T) 10:1) were plated in each well of a 96 well flat bottom plate for the co-culture assay. 100 ng/ml of soluble anti-CD3 mAb (clone OKT3) was added to the culture on day 0 to stimulate human PBMCs. Test, control compounds, or vehicle controls were diluted in R10 media and 50 μL was added to respective wells to bring the final volume per well to 250 μL. Plates were covered with a breathable film and incubated in a humidified chamber at 37° C. with 5% CO2 for two days. […] Briefly, the standards and samples were added to a black 96 well plate. Microparticle cocktail (provided in Luminex kit, R&D Systems) was added and shaken for 2 hours at room temperature. The plate was washed 3 times using a magnetic holder. Biotin cocktail was then added to the plate and shaken for 1 hour at RT. The plate was washed 3 times using a magnetic holder. Streptavidin cocktail was added to the plate and shaken for 30 minutes at RT. The plates were washed 3 times using a magnetic holder, resuspended in 100 μL of wash buffer, shaken for 2 minutes at RT, and read using the Luminex 2000. Raw data were analyzed using built-in Luminex software to generate standard curves and interpolate protein concentrations, all other data analyses and graphing were performed using Excel and Prism software. Data represents one study with three independent donor PBMCs tested in experimental duplicates.
Similarly, PBMCs from healthy donors were co-cultured with EphA2 expressing cancer cells (MC38 and HT-1080) at a ratio of 5:1 in presence of anti-CD3 and BCY13272. […]

Data set [4] deals with CD137 (Homo sapiens, UniProt Q07011). Nature of the data set: CD137 reporter assay (Promega, Jurkat cells) in co-culture with EphA2-expressing tumor cells (A549, PC3, HT29). It counts as cell-based. Further details: host or cells: Jurkat reporter cells. Put shortly: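 Readout is Bio-Glo luminescence after 6 h, 37° C co-culture of CD137 reporter Jurkat cells, target tumor cells (EphA2: A549, PC3, HT29; PD-L1: RKO) and titrated test articles in 1% FBS RPMI. EC50 (nM) and maximal induction come from fold change over untreated co-culture.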
Chain of CD137 (Q07011 24-255): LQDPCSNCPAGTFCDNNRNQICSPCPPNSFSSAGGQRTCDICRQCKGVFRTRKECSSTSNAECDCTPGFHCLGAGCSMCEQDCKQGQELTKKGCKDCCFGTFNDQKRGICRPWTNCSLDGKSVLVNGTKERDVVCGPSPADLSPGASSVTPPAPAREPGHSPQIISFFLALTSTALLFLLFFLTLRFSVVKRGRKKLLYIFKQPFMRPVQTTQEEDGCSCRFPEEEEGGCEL

A short description of data set [5]: Pharmacokinetics in cynomolgus monkey. It counts as in vivo. Conditions: in vivo, IV infusion (15 min), 1 mg/kg. Here is the method:
Serial bleeding (about 1.2 ml blood/time point) was performed from a peripheral vessel from restrained, non-sedated animals at each time point into a commercially available tube containing Potassium (K2) EDTA*2H2O (0.85-1.15 mg) on wet ice and processed for plasma. Samples were centrifuged (3,000×g for 10 minutes at 2 to 8° C.) immediately after collection. 0.1 mL plasma was transferred into labelled polypropylene micro-centrifuge tubes. 5-fold of the precipitant including internal standard 100 ng/mL Labetalol & 100 ng/mL dexamethasone & 100 ng/mL tolbutamide & 100 ng/mL Verapamil & 100 ng/mL Glyburide & 100 ng/mL Celecoxib in MeOH was immediately added into the plasma, mixed well and centrifuged at 12,000 rpm for 10 minutes at 2 to 8° C. Samples of supernatant were transferred into the pre-labeled polypropylene microcentrifuge tubes, and frozen over dry ice. The samples were stored at −60° C. or below until LC-MS/MS analysis. An aliquot of 40 μL calibration standard, quality control, single blank and double blank samples were added to the 1.5 mL tube. Each sample (except the double blank) was quenched with 200 μL IS1 respectively (double blank sample was quenched with 200 μL MeOH with 0.5% tritonX-100), and then the mixture was vortex-mixed well (at least 15 s) with vortexer and centrifuged for 15 min at 12000 g, 4° C. A 10 μL supernatant was injected for LC-MS/MS analysis using an Orbitrap Q Exactive in positive ion mode to determine the concentrations of analyte. Plasma concentration versus time data were analyzed by non-compartmental approaches using the Phoenix WinNonlin 6.3 software program. C0, CI, Vdss, T½, AUC(0-last), AUC(0-inf), MRT(0-last), MRT(0-inf) and graphs of plasma concentration versus time profile were reported.

Data set [6] in a line: Pharmacokinetics in CD1 mice. The note with it: mouse, in vivo; mice, after IP injection; read-out: circulating plasma half-life (converted). It counts as in vivo, CD-1 mice. The procedure:
as §1, with “Serial” for “Male SD Rats were dosed with each heterotandem Bicycle peptide complex formulated in 25 mM Histidine HCl, 10% sucrose pH 7 by IV bolus or IV infusion (15 minutes). Serial”

Where two headings read alike, the source gives them in different places. Starred links: 1 amine or outer side, 2 acyl side, 3 side chain; linkers in the order of their positions; H or OH if unused. Positions of bridges follow the written chain, without caps; N, C: chain ends. Non-standard residues stand in square brackets, D forms with d. Chains are numbered I, II in the order given. No end group written: not given here. *: point of attachment. X1 = O=C(CCOCCOCCOCCN(CCOCCOCCOCCn1cc(CCC(=O)[*:2])nn1)CCOCCOCCOCCn1cc(CCC(=O)[*:3])nn1)[*:1]; X2 = O=C(CCSCCC(=O)[*:1])N1CN(C(=O)CC[*:2])CN(C(=O)CC[*:3])C1; TATA = O=C(CC[*:1])N1CN(C(=O)CC[*:2])CN(C(=O)CC[*:3])C1; Hyp = O=C(O)[C@@H]1C[C@@H](O)CN1; hArg = N=C(N)NCCCC[C@H](N)C(=O)O; tBuAla = CC(C)(C)C[C@H](N)C(=O)O; Nle = CCCC[C@H](N)C(=O)O; Pent4ynoyl = C#CCCC(=O)*; Mpa = O=C(O)CCS

“I: A[hArg]DC[Hyp]LVNPLCLHP[dD]W[hArg]C-NH2 / II: [Mpa][tBuAla]PE[dK]PYCFADPY[Nle]C-NH2 / III: [tBuAla]PE[dK]PYCFADPY[Nle]C-NH2 (linker I:4-I:11-I:18, II:1-II:8-II:15 via TATA; linker I:N-II:5-III:4 via X1; linker III:N-III:7-III:14 via X2) [BCY12730]”: in data set [1] (IV Inf (15 minutes)), the half-life was 2 h, the clearance came to 18 mL/min/kg and the Vd is 2.6 L/kg. For the same substance, in data set [2], the complete responses is recorded as 3 out of 6. Further, the EC50 in data set [3] (human PBMC-MC38 co-culture, Donor 1, 48 h incubation, read-out: Donor 1 EC50 of IFNγ secretion) was 0.13 nM. In addition, the EC50 in data set [3] (human PBMC-MC38 co-culture, Donor 2, 48 h incubation, read-out: Donor 2 EC50 of IFNγ secretion) is 0.19 nM. For the same substance, the “Emax (fold induction over background)” value in data set [4] (CD137 reporter coculture assay with PC3 tumor cells) turned out to be 61.73. This substance also gave a half-maximal effective concentration (EC50) in data set [4] (EC50, CD137 reporter coculture assay with PC3 tumor cells) of 0.25 nM.
As for “I: A[hArg]DC[Hyp]LVNPLCLHP[dD]W[hArg]C-NH2 / II: Ac-C[tBuAla]PE[dK]PYCFADPY[Nle]CA-NH2 / III: Ac-C[tBuAla]PE[dK]PYCFADPY[Nle]CA-NH2 (linker I:4-I:11-I:18, II:1-II:8-II:15, III:1-III:8-III:15 via TATA; linker I:N-II:5-III:5 via X1) [BCY12491]”, the results for the half-life in data set [1] (IV Bolus), in data set [5] (read-out: T1/2 (converted)) and in data set [6] were 1.3 h, 3.2 h and 2.5 h, respectively. Also, the clearance in data set [1] (IV Bolus) came out at 20 mL/min/kg; in data set [5] (read-out: Clp), 3 mL/min/kg. For the same substance, the Vd worked out at 1.6 L/kg in data set [1] (IV Bolus) and 0.36 L/kg in data set [5] (read-out: Vdss). Moreover, the EC50 in data set [3] (MC38 co-culture, donor 228711, read-out: EC50 of IFN-γ cytokine secretion) is 0.085 nM; in data set [3] (MC38 co-culture, donor 228769, read-out: EC50 of IFN-γ cytokine secretion), 0.034 nM.
Consider “BCY12723: EphA2:CD137 1:2; BCY9594 + 2x BCY12143; linker N-(acid-PEG3)-N-bis(PEG3-azide) (peptide 1 A[hArg]DC[Hyp]LVNPLCLHP[dD]W[hArg]C; peptide 2 Ac-C[tBuAla]EE[dK](Pent4ynoyl)PYCFADPY[Nle]C; linker I:4-I:11-I:18, II:1-II:8-II:15 via TATA; not fully specified (bridges); also: chain 2 present twice on linker, EphA2:CD137 1:2)”, for which the complete responses in data set [2] is 2 out of 6. The half-maximal effective concentration (EC50) worked out at 0.13 nM in data set [3] (human PBMC-MC38 co-culture, Donor 1, 72 h incubation, read-out: Donor 1 EC50 of IFNγ secretion) and 0.095 nM in data set [3] (human PBMC-MC38 co-culture, Donor 2, 72 h incubation, read-out: Donor 2 EC50 of IFNγ secretion). The “Fold Improvement over BCY9173, EC50 (nM)” value in data set [4] (co-culture with PC3) was 2.2 fold. Further, the “Fold Improvement over Emax” value in data set [4] (co-culture with PC3, versus BCY9173) was determined as 1.8 fold.
